Measurements from patent publication US6723727B1, “Substituted purine derivatives, processes for their preparation, their use, and compositions comprising them” (Hoechst Aktiengesellschaft, priority 1996, dated 2004).

Target: human vitronectin receptor αvβ3 (Homo sapiens, UniProt P05106+P06756)
Test: Inhibition of binding of kistrin to human vitronectin receptor (αvβ3 ELISA test, K/VnR)
Details: for K/VnR Inhibition at 10 μM (in %): 10 μM test compound

Sequence of human vitronectin receptor αvβ3 (P06756 31-889 limits assumed): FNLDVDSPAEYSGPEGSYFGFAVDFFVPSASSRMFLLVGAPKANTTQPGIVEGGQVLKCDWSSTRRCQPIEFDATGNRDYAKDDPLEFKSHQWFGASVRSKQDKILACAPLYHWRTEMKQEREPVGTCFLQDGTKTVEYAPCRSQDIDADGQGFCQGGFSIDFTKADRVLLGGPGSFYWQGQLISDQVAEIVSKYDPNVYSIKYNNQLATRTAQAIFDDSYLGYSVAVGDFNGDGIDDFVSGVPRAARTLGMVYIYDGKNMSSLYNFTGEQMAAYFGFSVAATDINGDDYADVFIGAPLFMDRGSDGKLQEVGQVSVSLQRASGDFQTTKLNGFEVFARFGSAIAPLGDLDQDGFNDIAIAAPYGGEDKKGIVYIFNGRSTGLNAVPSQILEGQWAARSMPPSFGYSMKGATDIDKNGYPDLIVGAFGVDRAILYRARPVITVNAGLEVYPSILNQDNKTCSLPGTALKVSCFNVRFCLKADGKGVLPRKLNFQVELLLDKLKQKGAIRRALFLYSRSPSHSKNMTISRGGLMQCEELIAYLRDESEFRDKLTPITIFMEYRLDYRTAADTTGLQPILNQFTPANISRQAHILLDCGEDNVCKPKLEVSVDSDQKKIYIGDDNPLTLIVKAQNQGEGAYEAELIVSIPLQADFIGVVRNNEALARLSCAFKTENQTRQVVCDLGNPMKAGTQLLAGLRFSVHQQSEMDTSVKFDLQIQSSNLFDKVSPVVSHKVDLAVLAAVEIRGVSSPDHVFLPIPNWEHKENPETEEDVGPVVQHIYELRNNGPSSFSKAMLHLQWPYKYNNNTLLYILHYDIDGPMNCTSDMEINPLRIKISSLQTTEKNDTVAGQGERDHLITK
Sequence of human vitronectin receptor αvβ3 (P06756 891-1048 limits assumed): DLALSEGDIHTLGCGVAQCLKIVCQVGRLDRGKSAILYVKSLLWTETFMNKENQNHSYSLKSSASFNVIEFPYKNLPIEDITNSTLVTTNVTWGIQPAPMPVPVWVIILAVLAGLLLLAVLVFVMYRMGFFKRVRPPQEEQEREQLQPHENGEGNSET
Sequence of human vitronectin receptor αvβ3 (P05106 27-788): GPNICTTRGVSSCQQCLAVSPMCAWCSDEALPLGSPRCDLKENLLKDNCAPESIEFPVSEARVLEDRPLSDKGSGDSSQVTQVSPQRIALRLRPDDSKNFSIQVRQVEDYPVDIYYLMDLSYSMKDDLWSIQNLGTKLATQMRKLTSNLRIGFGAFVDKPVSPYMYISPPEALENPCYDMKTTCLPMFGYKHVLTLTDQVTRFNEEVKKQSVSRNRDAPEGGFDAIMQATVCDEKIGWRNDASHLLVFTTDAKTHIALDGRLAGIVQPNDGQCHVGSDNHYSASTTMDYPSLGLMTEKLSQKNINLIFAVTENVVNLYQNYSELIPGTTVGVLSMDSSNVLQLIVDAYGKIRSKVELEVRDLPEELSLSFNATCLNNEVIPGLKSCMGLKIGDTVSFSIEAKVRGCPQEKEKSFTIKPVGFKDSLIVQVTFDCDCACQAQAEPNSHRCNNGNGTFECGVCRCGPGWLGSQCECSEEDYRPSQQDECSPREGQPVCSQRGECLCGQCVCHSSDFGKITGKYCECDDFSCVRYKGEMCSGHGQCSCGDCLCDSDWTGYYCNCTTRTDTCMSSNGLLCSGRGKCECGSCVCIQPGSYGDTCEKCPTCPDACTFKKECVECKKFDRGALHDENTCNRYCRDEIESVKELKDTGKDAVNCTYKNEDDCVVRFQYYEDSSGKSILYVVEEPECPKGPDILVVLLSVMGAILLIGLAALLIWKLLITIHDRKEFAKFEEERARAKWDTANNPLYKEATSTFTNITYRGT

Work on N=C(N)NCCCCCNc1ncnc2c1ncn2C[C@H](NC(=O)OCc1ccccc1)C(=O)O [Example 1, N^6-(1-(5-Guanidinopentyl))-N^9-(3-(2S-(benzyloxycarbonylamino)propionic acid))-adenine] yielded an IC50 of 1100 nM.

Molecule N=C(N)NCCCCNc1ncnc2c1ncn2C[C@H](NC(=O)OCc1ccccc1)C(=O)O [Example 2, N^6-(1-(4-Guanidinobutyl))-N^9-(3-(2S-(benzyloxycarbonylamino)propionic acid))-adenine] has an IC50 of 700 nM.

With N=C(N)NCCCNc1ncnc2c1ncn2C[C@H](NC(=O)OCc1ccccc1)C(=O)O [Example 3, N^6-(1-(3-Guanidinopropyl))-N^9-(3-(2S-(benzyloxycarbonylamino)propionic acid))-adenine] the IC50 was 2200 nM.

O=C(N[C@@H](Cn1cnc2c(NCCCCNC3=NCCN3)ncnc21)C(=O)O)OCc1ccccc1 [Example 4, N^6-(1-(4-(4,5-Dihydro-1H-imidazol-2-ylamino)butyl))-N^9-(3-(2S-(benzyloxycarbonylamino)propionic acid))-adenine] was tested, and the IC50 was 150 nM.

Work on N=C(N)NCCCn1cnc2c(NCC[C@H](NC(=O)OCc3ccccc3)C(=O)O)ncnc21 [Example 12, N^6-(4-(2S-(Benzyloxycarbonylamino)butyric acid))-N^9-(1-(3-guanidinylpropyl))-adenine] yielded an IC50 of 580 nM.

Molecule O=C(N[C@@H](CCNc1ncnc2c1ncn2CCCNC1=NCCN1)C(=O)O)OCc1ccccc1 [Example 13, N^6-(4-(2S-(Benzyloxycarbonylamino)butyric acid))-N^9-(1-(3-(4,5-dihydro-1H-imidazol-2-ylamino)propyl))-adenine] has an IC50 of 190 nM.

Work on N=C(N)NCCCCCn1cnc2c(NC[C@H](NC(=O)OCc3ccccc3)C(=O)O)ncnc21 [Example 14, N^6-(3-(2S-(Benzyloxycarbonylamino)propionic acid))-N^9-(1-(5-guanidinyl-pentyl))-adenine] yielded an IC50 of 650 nM.

With NCCCCCn1cnc2c(NC[C@H](NC(=O)OCc3ccccc3)C(=O)O)ncnc21 [Example 14c, N^6-(3-(2S-(Benzyloxycarbonylamino)propionic acid))-N^9-(1-(5-amino-pentyl))-adenine] the “K/VnR Inhibition at 10 μM (in %)” value was 22%.

O=C(N[C@@H](CNc1ncnc2c1ncn2CCCCCNC1=NCCN1)C(=O)O)OCc1ccccc1 [Example 15, N^6-(3-(2S-(Benzyloxycarbonylamino)propionic acid))-N^9-(1-(5-(4,5-dihydro-1H-imidazol-2-ylamino)pentyl))-adenine] showed an IC50 of 210 nM.

For N=C(N)NCCCn1cnc2c(NC[C@H](NC(=O)OCc3ccccc3)C(=O)O)ncnc21 [Example 16, N^6-(3-(2S-(Benzyloxycarbonylamino)propionic acid))-N^9-(1-(3-guanidinylpropyl))-adenine], the IC50 was 540 nM.

With NCCCn1cnc2c(NC[C@H](NC(=O)OCc3ccccc3)C(=O)O)ncnc21 [Example 16b, N^6-(3-(2S-(Benzyloxycarbonylamino)propionic acid))-N^9-(1-(3-amino-propyl))-adenine] the “K/VnR Inhibition at 10 μM (in %)” value was 29%.

N=C(N)NCCCCn1cnc2c(NC[C@H](NC(=O)OCc3ccccc3)C(=O)O)ncnc21 [Example 17, N^6-(3-(2S-(Benzyloxycarbonylamino)propionic acid))-^9-(1-(4guanidinyl-butyl))-adenine] showed an IC50 of 170 nM.

With O=C(N[C@@H](CNc1ncnc2c1ncn2CCCCNC1=NCCN1)C(=O)O)OCc1ccccc1 [Example 18] the IC50 was 75 nM.

Work on O=C(N[C@@H](Cn1cnc2c(N3CCC(C(=O)NC4=NCCCN4)CC3)ncnc21)C(=O)O)OCc1ccccc1 [Example 19, 2S-Benzyloxycarbonylamino-3-(6-(4-(1,4,5,6-tetrahydropyrimidin-2-yl-carbamoyl)piperidin-1-yl)purin-9-yl)propionic acid] yielded an IC50 of 4 nM.

For O=C(N[C@@H](Cn1cnc2c(NCCCCNc3nc4ccccc4[nH]3)ncnc21)C(=O)O)OCc1ccccc1 [Example 23, 3-(6-((4-(Benzimidazol-2-ylamino)butyl)amino)purin-9-yl)-2S-benzyloxycarbonylaminopropionic Acid], the IC50 was 160 nM.

Work on O=C(N[C@@H](Cn1cnc2c(N3CCC(CNC4=NCCN4)CC3)ncnc21)C(=O)O)OCc1ccccc1 [Example 24, 2S-Benzyloxycarbonylamino-3-(6-(4-((4,5-dihydro-1H-imidazol-2-ylamino)-methyl)piperidin-1-yl)purin-9-yl)propionic Acid] yielded an IC50 of 52 nM.

O=C(N[C@H](Cn1cnc2c(N3CCC(CNC4=NCCN4)CC3)ncnc21)C(=O)O)OCc1ccccc1 [Example 25, 2R-Benzyloxycarbonylamino-3-(6-(4-((4,5-dihydro-1H-imidazol-2-ylamino)-methyl)piperidin-1-yl)purin-9-yl)propionic Acid] showed an IC50 of 345 nM.

In the case of N=C(N)NCC1CCN(c2ncnc3c2ncn3C[C@H](NC(=O)OCc2ccccc2)C(=O)O)CC1 [Example 26, 2S-Benzyloxycarbonylamino-3-(6-(4-(guanidinomethyl)piperidin-1-yl)purin-9-yl)propionic Acid], the IC50 is reported as 360 nM.
